Laboratory results from ChEMBL document CHEMBL5055656, “Synthesis of novel indole-thiazolidinone hybrid structures as promising scaffold with anticancer potential” (Bioorg Med Chem, 2021).
Calls of active or inactive are those of the source. No cut-off for these calls is given here.

What was measured:
[1] = Selectivity index, ratio of GI50 for mouse BALA/3T3 cells to GI50 for human HepG2 cells measured after 24 hrs by coomassie brilliant blue staining based total cellular protein assay; assay type: toxicity; settings: BALA/3T3 cells versus HepG2 cells, read-out: Selectivity Index
[2] = test system: BALB/3T3; assay: Induction of DNA damage in mouse BALB/3T3 cells assessed as increase in olive tail moment incubated at 55 uM measured after 24 hrs by alkaline Comet assay; assay type: cell-based; settings: balb/3t3, 24 h
[3] = Selectivity index, ratio of GI50 for mouse BALA/3T3 cells to GI50 for human HCT-116 cells; assay type: toxicity; settings: BALA/3T3 cells versus HCT-116 cells, read-out: RatioGI50
[4] = test system: HepG2; assay: Cytotoxicity against human HepG2 cells assessed as cell growth inhibition measured after 48 hrs by MTT assay; assay type: functional
[5] = test system: MCF7; assay: Induction of DNA damage in human MCF7 cells assessed as increase in tail length incubated at 0.7 uM measured after 24 hrs by alkaline Comet assay; assay type: functional, cell-based
[6] = Selectivity index, ratio of GI50 for mouse BALA/3T3 cells to GI50 for human HepG2 cells; assay type: toxicity; settings: BALA/3T3 cells versus HepG2 cells, read-out: RatioGI50
[7] = test system: MCF7; assay: Cytotoxicity against human MCF7 cells assessed as cell growth inhibition measured after 72 hrs by MTT assay; assay type: functional
[8] = test system: HCT-116; assay: Induction of DNA damage in human HCT-116 cells assessed as increase in olive tail moment incubated at 0.7 uM measured after 24 hrs by alkaline Comet assay; assay type: functional
[9] = test system: BALB/3T3; assay: (§1) Cytotoxicity against mouse BALB/3T3 cells assessed as cell growth inhibition measured after 72 hrs by coomassie brilliant blue staining based total cellular protein assay; settings: balb/3t3, 72 h
[10] = as §1; settings: BALB/3T3 cells
[11] = Selectivity index, ratio of GI50 for mouse BALA/3T3 cells to GI50 for human HeLa cells; assay type: toxicity; settings: BALA/3T3 cells versus HeLa cells, read-out: RatioGI50
[12] = test system: HepG2; assay: Induction of DNA damage in human HepG2 cells assessed as increase in olive tail moment incubated at 0.7 uM measured after 24 hrs by alkaline Comet assay; assay type: functional
[13] = test system: WM793; assay: Cytotoxicity against human WM793 cells assessed as cell growth inhibition measured after 72 hrs by MTT assay; assay type: functional
[14] = test system: HepG2; assay: Cytotoxicity against human HepG2 cells assessed as cell growth inhibition measured after 48 hrs by LDH assay; assay type: functional
[15] = Selectivity index, ratio of GI50 for human HaCaT mouse BALA/3T3 cells to GI50 for human A549 cells; assay type: toxicity; settings: read-out: RatioGI50
[16] = test system: HCT-116; assay: Induction of cell cycle arrest in human HCT-116 cells assessed as decrease in phospho-Rb expression at 45 uM measured after 24 hrs by Western blot analysis; assay type: functional, cell-based
[17] = Selectivity index, ratio of GI50 for human HaCaT cells to GI50 for human MCF7 cells; assay type: toxicity; settings: HaCaT cells versus MCF7 cells, read-out: RatioGI50
[18] = test system: HCT-116; assay: Induction of apoptosis in human HCT-116 cells assessed as activation of cleaved PARP1 expression at 0.7 uM incubated for 24 hrs by Western blot analysis; assay type: functional, cell-based
[19] = Selectivity index, ratio of GI50 for mouse BALA/3T3 cells to GI50 for human HepG2 cells measured after 48 hrs by coomassie brilliant blue staining based total cellular protein assay; assay type: toxicity; settings: BALA/3T3 cells versus HepG2 cells, read-out: Selectivity Index
[20] = test system: HepG2; assay: Induction of apoptosis in human HepG2 cells assessed as activation of cleaved caspase 3 expression at 0.7 uM incubated for 24 hrs by Western blot analysis; assay type: functional, cell-based
[21] = test system: HepG2; assay: Induction of apoptosis in human HepG2 cells assessed as increase in Cdk2 expression at 45 uM after 24 hrs by Western blot analysis; assay type: functional, cell-based
[22] = test system: A549; assay: Cytotoxicity against human A549 cells assessed as cell growth inhibition measured after 72 hrs by MTT assay; assay type: functional
[23] = test system: HepG2; assay: Induction of cell cycle arrest in human HepG2 cells assessed as effect of phospho-Rb expression at 45 uM measured after 24 hrs by Western blot analysis; assay type: functional, cell-based
[24] = test system: MCF7; assay: Induction of apoptosis in human MCF7 cells assessed as activation of cleaved PARP1 expression at 0.7 uM incubated for 24 hrs by Western blot analysis; assay type: functional, cell-based
[25] = test system: HCT-116; assay: Induction of apoptosis in human HCT-116 cells assessed as decrease in Cdk2 expression at 45 uM after 24 hrs by Western blot analysis; assay type: functional, cell-based
[26] = Selectivity index, ratio of GI50 for mouse BALA/3T3 cells to GI50 for human THP-1 cells
[27] = Selectivity index, ratio of GI50 for mouse BALA/3T3 cells to GI50 for human HepG2 cells measured after 24 hrs by LDH assay; assay type: toxicity; settings: BALA/3T3 cells versus HepG2 cells, read-out: Selectivity Index
[28] = Cytotoxicity against mouse BALB/3T3 cells assessed as cell growth inhibition measured after 72 hrs by MTT assay; assay type: cell-based
[29] = Selectivity index, ratio of GI50 for mouse BALA/3T3 cells to GI50 for human WM793 cells
[30] = test system: BALB/3T3; assay: (§2) Cytotoxicity against mouse BALB/3T3 cells assessed as cell growth inhibition measured after 24 hrs by MTT assay; assay type: cell-based; settings: balb/3t3, 24 h
[31] = as §2; assay type: cell-based; settings: BALB/3T3 cells
[32] = target: Mitogen-activated protein kinase; ERK1/ERK2 (Homo sapiens) (UniProt P27361+P28482); assay: Inhibition of ERK1/2 phosphorylation in human HepG2 cells at 45 uM after 24 hrs by Western blotting analysis; assay type: cell-based
[33] = test system: HepG2; assay: Induction of apoptosis in human HepG2 cells assessed as increase in Bax expression at 45 uM after 24 hrs by Western blot analysis; assay type: functional, cell-based
[34] = test system: HepG2; assay: Induction of apoptosis in human HepG2 cells assessed as activation of cleaved PARP1 expression at 0.7 uM incubated for 24 hrs by Western blot analysis; assay type: functional, cell-based
[35] = test system: MCF7; assay: Induction of cell cycle arrest in human MCF7 cells assessed as decrease in phospho-Rb expression at 45 uM measured after 24 hrs by Western blot analysis; assay type: functional, cell-based
[36] = Selectivity index, ratio of GI50 for mouse BALA/3T3 cells to GI50 for human MCF7 cells; assay type: toxicity; settings: BALA/3T3 cells versus MCF7 cells, read-out: RatioGI50
[37] = test system: HepG2; assay: Cytotoxicity against human HepG2 cells assessed as cell growth inhibition measured after 72 hrs by LDH assay; assay type: functional
[38] = test system: Salmon testes DNA; assay: Displacement of methyl green from salmon sperm DNA at 10 uM measured after 2 hrs by fluorescence plate reader method relative to control; assay type: cell-based; settings: Salmo salar, Spermatozoa
[39] = test system: HepG2; assay: Cytotoxicity against human HepG2 cells assessed as cell growth inhibition measured after 72 hrs by neutral red uptake assay; assay type: functional
[40] = test system: HCT-116; assay: Cytotoxicity against human HCT-116 cells assessed as cell growth inhibition measured after 72 hrs by MTT assay; assay type: functional
[41] = Selectivity index, ratio of GI50 for human HaCaT cells to GI50 for human HCT-116 cells; assay type: toxicity; settings: HaCaT cells versus HCT-116 cells, read-out: RatioGI50

Sequence of Mitogen-activated protein kinase; ERK1/ERK2 (Homo sapiens) (P27361 whole entry, looked up): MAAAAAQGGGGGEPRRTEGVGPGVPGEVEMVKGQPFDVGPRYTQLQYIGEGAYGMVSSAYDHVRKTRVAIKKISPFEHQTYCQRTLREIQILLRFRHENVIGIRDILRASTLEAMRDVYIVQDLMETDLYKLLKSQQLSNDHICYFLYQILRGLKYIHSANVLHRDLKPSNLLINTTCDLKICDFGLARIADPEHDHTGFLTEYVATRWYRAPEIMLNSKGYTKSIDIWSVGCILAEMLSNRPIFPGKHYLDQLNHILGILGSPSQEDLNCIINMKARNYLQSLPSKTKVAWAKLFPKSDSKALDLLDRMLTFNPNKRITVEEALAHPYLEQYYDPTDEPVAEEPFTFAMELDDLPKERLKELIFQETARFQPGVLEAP
Sequence of Mitogen-activated protein kinase; ERK1/ERK2 (Homo sapiens) (P28482 whole entry, looked up): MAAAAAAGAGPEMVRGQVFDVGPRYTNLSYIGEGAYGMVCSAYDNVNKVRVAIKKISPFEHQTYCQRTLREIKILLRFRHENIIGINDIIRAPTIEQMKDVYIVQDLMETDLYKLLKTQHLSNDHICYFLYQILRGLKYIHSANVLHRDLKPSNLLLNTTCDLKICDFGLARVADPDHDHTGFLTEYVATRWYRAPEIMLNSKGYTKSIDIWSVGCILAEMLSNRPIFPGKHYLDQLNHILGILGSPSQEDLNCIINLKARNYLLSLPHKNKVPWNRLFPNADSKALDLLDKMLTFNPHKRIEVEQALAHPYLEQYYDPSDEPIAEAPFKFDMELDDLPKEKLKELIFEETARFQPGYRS

Question: For `COC(=O)c1[nH]c2ccc(F)cc2c1/C=C1\SC(=S)NC1=O`, which selectivity ratio at 24 h [1] is on record?
Answer: The selectivity ratio at 24 h was 1.

Question: What about the Activity [2] of the same compound?
Answer: Its Activity is 3.5.

Question: And the selectivity ratio [3]?
Answer: The selectivity ratio was 86.9.

Question: What about the GI20 [4] of the same compound?
Answer: Its GI20 is 0.3 µM.

Question: What about the GI80 [4] of the same compound?
Answer: The GI80 was 79.4 µM.

Question: And the GI50 ([4]; Homo sapiens, HepG2)?
Answer: Its GI50 is 16.3 µM.

Question: What about the Activity [5] of the same compound?
Answer: Its Activity is “Active”.

Question: What about the selectivity ratio [6] of the same compound?
Answer: Its selectivity ratio is 5.75.

Question: And the GI50 [7]?
Answer: The GI50 was 0.7 µM.

Question: What about the Activity [8] of the same compound?
Answer: The Activity was 3.1.

Question: What about the GI20 [9] of the same compound?
Answer: The GI20 was 1.6 µM.

Question: And the GI80 [9]?
Answer: Its GI80 is greater than 100 µM.

Question: And the GI50 at 72 h [10]?
Answer: Its GI50 at 72 h is 48.3 µM.

Question: What about the selectivity ratio [11] of the same compound?
Answer: Its selectivity ratio is 1.41.

Question: What about the Activity [12] of the same compound?
Answer: Its Activity is 13.2.

Question: And the GI50 [13]?
Answer: Its GI50 is 80.4 µM.

Question: What about the GI20 [14] of the same compound?
Answer: Its GI20 is less than 0.01 µM.

Question: What about the GI80 [14] of the same compound?
Answer: Its GI80 is 16.2 µM.

Question: What about the GI50 ([14]; Homo sapiens, HepG2) of the same compound?
Answer: The GI50 was 0.06 µM.

Question: What about the selectivity ratio [15] of the same compound?
Answer: Its selectivity ratio is 7.17.

Question: What about the Activity [16] of the same compound?
Answer: Its Activity is “Active”.

Question: And the selectivity ratio [17]?
Answer: Its selectivity ratio is 99.4.

Question: And the Activity [18]?
Answer: Its Activity is “Active”.

Question: What about the selectivity ratio at 48 h [19] of the same compound?
Answer: The selectivity ratio at 48 h was 2.

Question: And the Activity [20]?
Answer: The Activity was “Active”.

Question: What about the Activity [21] of the same compound?
Answer: Its Activity is “Active”.

Question: And the GI50 [22]?
Answer: Its GI50 is 9.7 µM.

Question: What about the Activity [23] of the same compound?
Answer: Its Activity is “inactive”.

Question: And the Activity [24]?
Answer: The Activity was “Active”.

Question: What about the Activity [25] of the same compound?
Answer: Its Activity is “Active”.

Question: And the RatioGI50 [26]?
Answer: Its RatioGI50 is 1.11.

Question: What about the selectivity ratio at 24 h [27] of the same compound?
Answer: The selectivity ratio at 24 h was 323.

Question: And the GI50 at 72 h [28]?
Answer: The GI50 at 72 h was 40.8 µM.

Question: What about the RatioGI50 [29] of the same compound?
Answer: Its RatioGI50 is 0.87.

Question: What about the GI20 [30] of the same compound?
Answer: Its GI20 is 7.9 µM.

Question: And the GI80 [30]?
Answer: Its GI80 is greater than 100 µM.

Question: What about the GI50 at 24 h [31] of the same compound?
Answer: Its GI50 at 24 h is 54.3 µM.

Question: And the inhibition [32]?
Answer: The inhibition was “inactive”.

Question: What about the Activity [33] of the same compound?
Answer: Its Activity is “Active”.

Question: What about the Activity [34] of the same compound?
Answer: The Activity was “Active”.

Question: What about the Activity [35] of the same compound?
Answer: The Activity was “Active”.

Question: What about the selectivity ratio [36] of the same compound?
Answer: Its selectivity ratio is 99.4.

Question: And the GI20 [37]?
Answer: Its GI20 is less than 0.01 µM.

Question: What about the GI80 [37] of the same compound?
Answer: Its GI80 is 3.6 µM.

Question: What about the GI50 ([37]; Homo sapiens, HepG2) of the same compound?
Answer: The GI50 was 0.04 µM.

Question: And the Activity [38]?
Answer: The Activity was 5.4%.

Question: And the GI20 [39]?
Answer: Its GI20 is less than 0.01 µM.

Question: And the GI80 [39]?
Answer: The GI80 was 59.6 µM.

Question: And the GI50 ([39]; Homo sapiens, HepG2)?
Answer: The GI50 was 7.5 µM.

Question: What about the GI50 [40] of the same compound?
Answer: Its GI50 is 0.8 µM.

Question: And the selectivity ratio [41]?
Answer: The selectivity ratio was 86.9.
